Test results published in article PMC6332508, “A Promising PET Tracer for Imaging of α7 Nicotinic Acetylcholine Receptors in the Brain: Design, Synthesis, and in Vivo Evaluation of a Dibenzothiophene-Based Radioligand” (Molecules, 2015).
Several values for one entry are separate records, joined by “and”; a condition that tells them apart may be missing. Identical values can stand only once.

Test system: α7 nAChR
Assay: Dynamic PET studies in piglets with kinetic modelling (2TCM)
Type: in vivo
Set-up: clearance rate constant k2, mean: unit not given here
Settings: for VND / BPND / Rate Constant K1 / Rate Constant k2 / Rate Constant k3 / Rate Constant k4: piglet brain, 240 min scan data, n = 3; for total volume of distribution VT: piglet, K1/k2(1 + k3/k4)
Description: One-tissue and two-tissue compartment models (1TCM and 2TCM) were evaluated for mathematical description of [^18F]10a time-activity curves (TACs) in pig brain regions (Figure 3) using metabolite-corrected arterial plasma input functions. The 2TCM was identified as the more appropriate model based on its smaller Akaike information criterion (AIC) value. The four rate constants K1, k2, k3, and k4 were fitted and the non-displaceable volume of distribution (VND = K1/k2) and the binding potential (BPND = k3/k4) as defined by Innis et al. were calculated for each region of interest (Table 3 and Table 4).
Six female animals were used in this study with anesthesia and surgery performed as described previously. In brief, the animals received initially a premedication with midazolam (1 mg∙kg^−1 i.m.) followed by induction of anesthesia with 3% isoflurane in 70% N2O/30% O2. All incision sites were infiltrated with 1% lidocaine, and the anesthesia was maintained with 1.5% isoflurane throughout the surgical procedure. A central venous catheter was introduced through the left external jugular vein and used for the administration of the radiotracer and drugs, and for volume substitution with heparinized (50 IE∙mL^−1) lactated Ringer’s solution (2 mL∙kg^−1∙h^−1). An endotracheal tube was inserted by tracheotomy for artificial ventilation (Servo Ventilator 900C, Siemens-Elema, Solna, Sweden) after immobilization with pancuronium bromide (0.2 mg∙kg^−1∙h^−1). The artificial ventilation was adjusted to obtain normoxia and normocapnia (Radiometer ABL 500, Copenhagen, Denmark). Polyurethane catheters (i.d., 0.5 mm) were advanced through the left and the right femoral arteries into the abdominal aorta to withdraw arterial blood samples for regular monitoring of blood gases and for radiotracer input function measurements and metabolite analyses. The body temperature was monitored by a rectal temperature probe and maintained at ~38 °C by a heating pad. After the surgical procedure has been completed, anesthesia was maintained with 0.5% isoflurane in 70% N2O/30% O2, and the animals were allowed to stabilize for 1 h before imaging procedure.
PET imaging was performed according to the protocol described recently. In brief, a clinical tomograph (ECAT Exact HR+; Siemens Healthcare GmbH, Erlangen, Germany) was used with animals lying prone with the head placed in a custom-made head holder. For attenuation and scatter correction, transmission scans were acquired using three rotating ^68Ge rod sources. The radiotracer was injected as an intravenous (i.v.) bolus (10 mL saline with 340–494 MBq [^18F]10a) by a syringe pump within 2 min followed by flushing with 10 mL heparinized saline (50 IE∙mL^−1). PET scanning started at the time of injection (0 min) and dynamic emission data were acquired for a total of 240 min. Three animals were investigated under baseline conditions, and another three under blocking conditions with administration of 3 mg∙kg^−1 i.v. of the α7 nAChR partial agonist NS6740 at 3 min before radiotracer injection followed by a continuous infusion throughout the scan (1 mg∙kg^−1∙h^−1).
Arterial blood was sampled using a peristaltic pump during the first 20 min of the scan followed by manual sampling at 25, 30, 40, 50, 60, 90, 120, 150, 180, 210, and 240 min after injection. Plasma was obtained by centrifugation (13,000 rpm, 2 min at 21 °C) and total radioactivity concentration was measured using a gamma-counter (1470 Wizard; PerkinElmer, Shelton, CT, USA) cross-calibrated to the PET scanner. In addition, arterial whole blood was sampled manually at 4, 16, 30, 60, and 120 min p.i. and plasma obtained for metabolite analyses to determine the fraction of non-metabolized [^18F]10a.
The plasma input function was corrected for the presence of radioactive metabolites by determination of the parent fraction as described previously. […]

[1] = Occipital Cortex, blocking (NS6740)
[2] = Parietal Cortex, blocking (NS6740)

O=S1(=O)c2ccc([18F])cc2-c2ccc(N3CCN4CCC3CC4)cc21 [[^18F]10a]
VND (Occipital Cortex, baseline): 4.07 ± 2.23
BPND [1]: 0.95 ± 1.03
Rate Constant K1 [1]: 0.668 ± 0.103 mL·cm^−3·min^−1
Rate Constant k2 [1]: 0.064 ± 0.019 min⁻¹
Rate Constant k3 [1]: 0.022 ± 0.032 min⁻¹
Rate Constant k4 [1]: 0.013 ± 0.023 min⁻¹
VND [1]: 11.36 ± 4.41
BPND (Parietal Cortex, baseline): 3.47 ± 1.65
Rate Constant K1 (Parietal Cortex, baseline): 0.399 ± 0.038 mL·cm^−3·min^−1
Rate Constant k2 (Parietal Cortex, baseline): 0.140 ± 0.089 min⁻¹
Rate Constant k3 (Parietal Cortex, baseline): 0.126 ± 0.135 min⁻¹
Rate Constant k4 (Parietal Cortex, baseline): 0.031 ± 0.021 min⁻¹
VND (Parietal Cortex, baseline): 3.88 ± 2.49
BPND [2]: 0.82 ± 0.88
Rate Constant K1 [2]: 0.659 ± 0.120 mL·cm^−3·min^−1
Rate Constant k2 [2]: 0.055 ± 0.013 min⁻¹
Rate Constant k3 [2]: 0.015 ± 0.020 min⁻¹
Rate Constant k4 [2]: 0.011 ± 0.021 min⁻¹
VND [2]: 12.58 ± 4.52
BPND (Pons, baseline): 2.76 ± 0.81
Rate Constant K1 (Pons, baseline): 0.440 ± 0.045 mL·cm^−3·min^−1
Rate Constant k2 (Pons, baseline): 0.149 ± 0.059 min⁻¹
Rate Constant k3 (Pons, baseline): 0.068 ± 0.042 min⁻¹
Rate Constant k4 (Pons, baseline): 0.026 ± 0.019 min⁻¹
VND (Pons, baseline): 3.32 ± 1.40
BPND (Pons, blocking (NS6740)): 0.76 ± 1.16
Rate Constant K1 (Pons, blocking (NS6740)): 0.670 ± 0.092 mL·cm^−3·min^−1
Rate Constant k2 (Pons, blocking (NS6740)): 0.084 ± 0.030 min⁻¹
Rate Constant k3 (Pons, blocking (NS6740)): 0.019 ± 0.023 min⁻¹
Rate Constant k4 (Pons, blocking (NS6740)): 0.012 ± 0.016 min⁻¹
VND (Pons, blocking (NS6740)): 8.93 ± 3.96
BPND (Striatum, baseline): 3.98 ± 1.40
Rate Constant K1 (Striatum, baseline): 0.382 ± 0.028 mL·cm^−3·min^−1
Rate Constant k2 (Striatum, baseline): 0.144 ± 0.079 min⁻¹
Rate Constant k3 (Striatum, baseline): 0.114 ± 0.093 min⁻¹
Rate Constant k4 (Striatum, baseline): 0.027 ± 0.014 min⁻¹
VND (Striatum, baseline): 3.35 ± 1.81
BPND (Striatum, blocking (NS6740)): 0.75 ± 1.29
Rate Constant K1 (Striatum, blocking (NS6740)): 0.624 ± 0.143 mL·cm^−3·min^−1
Rate Constant k2 (Striatum, blocking (NS6740)): 0.057 ± 0.015 min⁻¹
Rate Constant k3 (Striatum, blocking (NS6740)): 0.020 ± 0.025 min⁻¹
Rate Constant k4 (Striatum, blocking (NS6740)): 0.011 ± 0.017 min⁻¹
VND (Striatum, blocking (NS6740)): 11.78 ± 4.91
BPND (Thalamus, baseline): 3.51 ± 1.13
Rate Constant K1 (Thalamus, baseline): 0.448 ± 0.027 mL·cm^−3·min^−1
Rate Constant k2 (Thalamus, baseline): 0.150 ± 0.071 min⁻¹
Rate Constant k3 (Thalamus, baseline): 0.111 ± 0.085 min⁻¹
Rate Constant k4 (Thalamus, baseline): 0.030 ± 0.018 min⁻¹
VND (Thalamus, baseline): 3.67 ± 2.10
BPND (Thalamus, blocking (NS6740)): 0.88 ± 1.00
Rate Constant K1 (Thalamus, blocking (NS6740)): 0.762 ± 0.129 mL·cm^−3·min^−1
Rate Constant k2 (Thalamus, blocking (NS6740)): 0.070 ± 0.025 min⁻¹
Rate Constant k3 (Thalamus, blocking (NS6740)): 0.023 ± 0.031 min⁻¹
Rate Constant k4 (Thalamus, blocking (NS6740)): 0.012 ± 0.021 min⁻¹
VND (Thalamus, blocking (NS6740)): 12.09 ± 5.31
BPND (Whole, baseline): 3.31 ± 1.02
Rate Constant K1 (Whole, baseline): 0.362 mL·cm^−3·min^−1 and 0.362 ± 0.038 mL·cm^−3·min^−1
Rate Constant k2 (Whole, baseline): 0.131 ± 0.062 min⁻¹
Rate Constant k3 (Whole, baseline): 0.093 ± 0.074 min⁻¹
Rate Constant k4 (Whole, baseline): 0.027 ± 0.018 min⁻¹
VND (Whole, baseline): 3.32 ± 1.74
BPND (Whole, blocking (NS6740)): 0.84 ± 1.07
Rate Constant K1 (Whole, blocking (NS6740)): 0.598 ± 0.108 mL·cm^−3·min^−1
Rate Constant k2 (Whole, blocking (NS6740)): 0.062 ± 0.015 min⁻¹
Rate Constant k3 (Whole, blocking (NS6740)): 0.018 ± 0.022 min⁻¹
Rate Constant k4 (Whole, blocking (NS6740)): 0.011 ± 0.018 min⁻¹
VND (Whole, blocking (NS6740)): 10.27 ± 3.94
total volume of distribution VT (cerebellum, baseline): 13 mL∙cm^−3
total volume of distribution VT (thalamus, baseline): 17 mL∙cm^−3
clearance rate constant k2, mean (whole brain, baseline): 0.131
